{
  "source": "patent US11998017B2",
  "about": "“Bio-pesticide for Japanese beetles” (priority 2022, dated 2024)",
  "test_system": "Japanese beetle",
  "assay": "neurological response / paralysis of Japanese beetle after consuming or absorbing quisqualic acid",
  "type": "in vivo, Popillia Japonica",
  "from_the_text": "The pesticide composition according to one or more embodiments described herein makes use of a phenomenon that is unique to the Japanese beetle. A primary active ingredient of the pesticide is the amino acid quisqualic acid, which elicits a unique neurological response specifically from the Japanese beetle. Quisqualic acid is naturally occurring in the Pelargonium and Quisqualic indica species of plants. As part of this disclosure, it was discovered that ingestion of the plants' essential oil is not required, but that the absorption of the plants' essential oil through contact by the Japanese beetle, can provoke a sufficient neurological response from the beetle, followed by 24-hour paralysis of the Japanese beetle. That is, the Japanese beetle need not consume the composition according to one or more embodiments herein. The composition is an effective pesticide through contact only by the Japanese beetle.\nJapanese beetles that do land on the leaves, become saturated with the oil and absorb the paralysis-inducing quisqualic acid. Japanese beetles that do feed on the foliage may then also consume the quisqualic acid. […]",
  "data": [
    {"compound": "N[C@@H](Cn1oc(=O)[nH]c1=O)C(=O)O", "note": "[quisqualic acid]", "values": [
      {"measurement": "duration of paralytic state", "setting": "after consumption or absorption through contact", "value": 24, "unit": "h"},
      {"measurement": "time until beetles fall into paralytic state", "setting": "beetles that consume or absorb the quisqualic acid", "value": "4 to 6", "unit": "h"}
    ]}
  ]
}
